Laboratory results taken from the supplement of paper PMC11451515.

Tested on: NOMO1
Experiment: cell viability relative to DMSO control; higher = less cytotoxic
Conditions: 48 h
How it was run: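 NOMO1 or SEM (500 cells/well) or P12-Ichikawa (1000 cells/well) leukemia cells were adapted for at least four passages in each medium. They were seeded in 1536-well plates (5 μl) and pin-dosed with library compounds in DMSO over an 11-point threefold series, 47 μM to 0.79 nM. CellTiter-Glo One luminescence was read after 48 h at 37°C. Viability is the per-plate percentage relative to DMSO wells, with cell-free wells as background.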

[1] = RPMI 5 mM glucose + 10% FBS, 0.000781 µM
[2] = RPMI 5 mM glucose + 10% FBS, 0.00234 µM
[3] = RPMI 5 mM glucose + 10% FBS, 0.00702 µM
[4] = RPMI 5 mM glucose + 10% FBS, 0.0211 µM
[5] = RPMI 5 mM glucose + 10% FBS, 0.0632 µM
[6] = RPMI 5 mM glucose + 10% FBS, 0.19 µM
[7] = RPMI 5 mM glucose + 10% FBS, 0.569 µM
[8] = RPMI 5 mM glucose + 10% FBS, 1.71 µM
[9] = RPMI 5 mM glucose + 10% FBS, 5.12 µM
[10] = RPMI 5 mM glucose + 10% FBS, 15.4 µM
[11] = RPMI 5 mM glucose + 10% FBS, 46.1 µM
[12] = RPMI 5 mM glucose + 10% dialyzed FBS, 0.000781 µM
[13] = RPMI 5 mM glucose + 10% dialyzed FBS, 0.00234 µM
[14] = RPMI 5 mM glucose + 10% dialyzed FBS, 0.00702 µM
[15] = RPMI 5 mM glucose + 10% dialyzed FBS, 0.0211 µM
[16] = RPMI 5 mM glucose + 10% dialyzed FBS, 0.0632 µM
[17] = RPMI 5 mM glucose + 10% dialyzed FBS, 0.19 µM
[18] = RPMI 5 mM glucose + 10% dialyzed FBS, 0.569 µM
[19] = RPMI 5 mM glucose + 10% dialyzed FBS, 1.71 µM
[20] = RPMI 5 mM glucose + 10% dialyzed FBS, 5.12 µM
[21] = RPMI 5 mM glucose + 10% dialyzed FBS, 15.4 µM
[22] = RPMI 5 mM glucose + 10% dialyzed FBS, 46.1 µM
[23] = HPLM + 10% dialyzed FBS, 0.000781 µM
[24] = HPLM + 10% dialyzed FBS, 0.00234 µM
[25] = HPLM + 10% dialyzed FBS, 0.00702 µM
[26] = HPLM + 10% dialyzed FBS, 0.0211 µM
[27] = HPLM + 10% dialyzed FBS, 0.0632 µM
[28] = HPLM + 10% dialyzed FBS, 0.19 µM
[29] = HPLM + 10% dialyzed FBS, 0.569 µM
[30] = HPLM + 10% dialyzed FBS, 1.71 µM
[31] = HPLM + 10% dialyzed FBS, 5.12 µM
[32] = HPLM + 10% dialyzed FBS, 15.4 µM
[33] = HPLM + 10% dialyzed FBS, 46.1 µM

| Structure (SMILES) | cell viability [1] [%] | cell viability [2] [%] | cell viability [3] [%] | cell viability [4] [%] | cell viability [5] [%] | cell viability [6] [%] | cell viability [7] [%] | cell viability [8] [%] | cell viability [9] [%] | cell viability [10] [%] | cell viability [11] [%] | cell viability [12] [%] | cell viability [13] [%] | cell viability [14] [%] | cell viability [15] [%] | cell viability [16] [%] | cell viability [17] [%] | cell viability [18] [%] | cell viability [19] [%] | cell viability [20] [%] | cell viability [21] [%] | cell viability [22] [%] | cell viability [23] [%] | cell viability [24] [%] | cell viability [25] [%] | cell viability [26] [%] | cell viability [27] [%] | cell viability [28] [%] | cell viability [29] [%] | cell viability [30] [%] | cell viability [31] [%] | cell viability [32] [%] | cell viability [33] [%] |
| --- | --- | --- | --- | --- | --- | --- | --- | --- | --- | --- | --- | --- | --- | --- | --- | --- | --- | --- | --- | --- | --- | --- | --- | --- | --- | --- | --- | --- | --- | --- | --- | --- | --- |
| CN(C)C1=C(Br)C=C(C=C1)C\2NC3=C(\C4=C2C(=O)CC(C)(C)C4)C5=CC=CC=C5C=C3 (configuration not stated) | 103 | 124 | 119 | 113 | 114 | 103 | 113 | 98 | 110 | 103 | 102 | 75.9 | 117 | 158 | 172 | 182 | 71.7 | 52.3 | 89.3 | 143 | 74.4 | 94.8 | – | – | – | – | – | – | – | – | – | – | – |
| CC(C)(C)[C@H](NC(=O)c1ccc(N)c(Cl)c1)C(=O)N1CCC[C@H]1C(=O)N[C@H](C#N)CC(=O)O | 113 | 126 | 112 | 118 | 120 | 126 | 116 | 30 | 23 | 22.7 | 20.6 | – | – | – | – | – | – | – | – | – | – | – | – | – | – | – | – | – | – | – | – | – | – |
| CO/N=C(\C(=O)N[C@@H]1C(=O)N2C(C(=O)OCOC(=O)C(C)(C)C)=C(/C=C\c3scnc3C)CS[C@H]12)c1csc(N)n1 | 81 | 106 | 92.8 | 98.9 | 104 | 104 | 99.4 | 92.5 | 95 | 84.6 | 58.2 | 72.8 | 83.9 | 88 | 80.9 | 91.1 | 83.9 | 96.2 | 99.1 | 88 | 70 | 48.6 | 81.6 | 111 | 103 | 93.3 | 102 | 87.7 | 109 | 102 | 106 | 81.7 | 42.9 |
| COC1=CC=C2/C3=N/CCN3\C(=N/C2=C1OC)NC(=O)C4=CC=CN=C4 | 104 | 115 | 113 | 123 | 132 | 108 | 110 | 114 | 107 | 115 | 92.7 | 116 | 141 | 117 | 127 | 131 | 104 | 103 | 103 | 83.6 | 76.5 | 68 | 124 | 132 | 123 | 131 | 121 | 126 | 114 | 111 | 93.2 | 86 | 78.6 |
| CNC(=O)C1=CC=C(C)C(=C1)N2C(=C/C(=C(/Br)C2=O)OCC3=C(F)C=C(F)C=C3)\C | 114 | 128 | 122 | 127 | 127 | 151 | 139 | 137 | 136 | 145 | 130 | – | – | – | – | – | – | – | – | – | – | – | – | – | – | – | – | – | – | – | – | – | – |
| Cc1c(C)c2c(c(C)c1O)CCC(C)(COc1ccc(CC3SC(=O)NC3=O)cc1)O2 (configuration not stated) | – | – | – | – | – | – | – | – | – | – | – | – | – | – | – | – | – | – | – | – | – | – | 122 | 123 | 114 | 133 | 125 | 126 | 142 | 138 | 132 | 116 | 125 |
| c1ccc(-c2oc3ncnc(NC[C@@H]4CCCO4)c3c2-c2ccccc2)cc1 | 102 | 110 | 112 | 114 | 120 | 120 | 117 | 109 | 110 | 112 | 63.8 | – | – | – | – | – | – | – | – | – | – | – | 114 | 113 | 134 | 113 | 134 | 128 | 123 | 126 | 112 | 103 | 62 |
| CCOc1cc(CC(=O)N[C@@H](CC(C)C)c2ccccc2N2CCCCC2)ccc1C(=O)O | – | – | – | – | – | – | – | – | – | – | – | – | – | – | – | – | – | – | – | – | – | – | 117 | 120 | 139 | 138 | 141 | 126 | 46.7 | 43.4 | 37 | 41.1 | 34.7 |
| Cc1ncc([N+](=O)[O-])n1CC(C)O (configuration not stated) | 100 | 123 | 106 | 106 | 113 | 118 | 132 | 117 | 117 | 105 | 113 | 101 | 107 | 95.3 | 96.4 | 113 | 116 | 110 | 110 | 115 | 115 | 101 | 96.1 | 100 | 117 | 114 | 119 | 110 | 111 | 116 | 117 | 120 | 108 |
| NC/1=N/C(=O)N(/C=N1)[C@@H]2O[C@H](CO)[C@@H](O)[C@H]2O | 100 | 109 | 91.5 | 93.6 | 99.9 | 106 | 96.9 | 90.6 | 81.3 | 52.7 | 20.7 | 110 | 112 | 106 | 110 | 116 | 111 | 109 | 91.6 | 72.6 | 32.6 | 14.6 | 108 | 108 | 111 | 101 | 106 | 115 | 108 | 100 | 94.8 | 65.8 | 21.2 |
| CON(C)C(=O)N1/N=C(S[C@@]1(CCCN)C2=CC=CC=C2)/C3=CC(=CC=C3F)F | 115 | 114 | 133 | 69.4 | 23.8 | 32.3 | 22.3 | 27.6 | 23 | 25.3 | 21.1 | – | – | – | – | – | – | – | – | – | – | – | 119 | 113 | 117 | 87.5 | 34.4 | 35.8 | 38.6 | 38.1 | 24.6 | 36.3 | 21.6 |
